Data taken from patent publication US20230285374A1, “THERAPEUTIC METHODS USING VADADUSTAT” (Akebia Therapeutics, Inc., priority 2019, published 2023).

What was measured:
[1] = system: anemic DD-CKD patients with incident dialysis and limited ESA exposure; assay: Phase 3 Incident DD-CKD (Correction/Conversion) trial, vadadustat vs darbepoetin alfa; assay type: in vivo, human; conditions: for Ferritin, mean / Hepcidin, mean / TSAT, mean: Incident trial
Protocol: (§1) Two randomized Phase 3, open-label, sponsor-blind, active-controlled non-inferiority (NI) trials were conducted in anemic DD-CKD patients with incident dialysis and limited ESA exposure (Correction/Conversion trial) and with prevalent dialysis and established ESA treatment (Conversion trial). The primary safety endpoint was prespecified as the time to first major adverse cardiovascular event (MACE) (all-cause mortality, non-fatal MI, or non-fatal stroke) pooled across the two trials. Primary and key secondary efficacy endpoints were mean change in Hb from baseline [BL] to wks 24-36 and to wks 40-52 between two treatment arms, respectively.
Phase 3, randomized, open-label, active-controlled study of the efficacy and safety of vadadustat versus darbepoetin alfa for the maintenance treatment of anemia after the correction of hemoglobin (Hb) or conversion from current ESA therapy in subjects who have recently initiated dialysis treatment for DD-CKD. Following a Screening period of up to 8 weeks (56 days), subjects who met all inclusion and none of the exclusion criteria were randomized 1:1 to vadadustat or darbepoetin alfa.
Randomization were stratified by: • Geographic region (United States [US] versus European Union [EU] versus Rest of World [ROW]). • New York Heart Association congestive heart failure (CHF) Class 0 (no CHF) or I versus II or III. • Study entry hemoglobin (Hb) level (<9.5 or ≥9.5 g/dL).
Following randomization, there were 4 periods during the study: • Correction/Conversion Period (Weeks 0 to 23): initial period on study medication. • Maintenance Period (Weeks 24 to 52): period on study medication during which efficacy was assessed (primary evaluation period: Weeks 24 to 36; secondary evaluation period: Weeks 40 to 52). • Long-term Treatment Period (Weeks 53 to End of Treatment [EOT]): continued study medication to assess long-term safety. • Follow-up (EOT+4 weeks): post-treatment visit (either in person or via telephone) for safety.
Inclusion Criteria: Subjects met the following criteria: • ≥18 years of age. • Initiated chronic maintenance dialysis (either peritoneal or hemodialysis) for end-stage kidney disease within 16 weeks prior to Screening. • Mean screening hemoglobin (Hb) between 8.0 and 11.0 g/dL (inclusive), as determined by the average of 2 Hb values measured by the central laboratory during Screening. • Serum ferritin ≥100 ng/mL and transferrin saturation (TSAT) ≥20% at Screening. • Folate and vitamin B12 measurements lower limit of normal at Screening. • Understands the procedures and requirements of the study and provides written informed consent and authorization for protected health information disclosure.
(§2) Exclusion Criteria: Subjects were excluded if they met any of the following criteria: • Anemia due to a cause other than CKD or subjects with active bleeding or recent blood loss. • Subjects with sickle cell disease, myelodysplastic syndromes, bone marrow fibrosis, hematologic malignancy, myeloma, hemolytic anemia, thalassemia, or pure red cell aplasia. • Red blood cell (RBC) transfusion within 8 weeks prior to randomization. • Anticipated to recover adequate kidney function to no longer require dialysis. • Aspartate aminotransferase (AST)/serum glutamic oxaloacetic transaminase (SGOT), alanine aminotransferase (ALT)/serum glutamic pyruvic transaminase (SGPT), or total bilirubin >2.0×upper limit of normal (ULN) at or during Screening. […]

[2] = system: anemic DD-CKD patients with prevalent dialysis and established ESA treatment; assay: Phase 3 Prevalent DD-CKD (Conversion) trial, vadadustat vs darbepoetin alfa; assay type: in vivo, human; conditions: for Ferritin, mean / Hepcidin, mean / TSAT, mean: Prevalent trial
Protocol: as §1
Phase 3, randomized, open-label, active-controlled study of vadadustat vs darbepoetin alfa for the maintenance treatment of anemia after conversion from ESA therapy.
Following a Screening period of up to 8 weeks (56 days), subjects who met all inclusion and none of the exclusion criteria were randomized 1:1 to vadadustat or darbepoetin alfa.
Randomization were stratified by: • Geographic region (United States [US] versus European Union [EU] versus Rest of World [ROW]) • New York Heart Association congestive heart failure (CHF) Class 0 (no CHF) or I versus II or III. • Study entry Hb (<10.0 versus ≥10.0 g/dL).
Following randomization, there were 3 periods during the study: • Conversion and Maintenance Period (Weeks 0 to 52): conversion to study medication for maintaining Hb (Weeks 0-23), primary efficacy evaluation (Weeks 24-36), and secondary efficacy evaluation (Weeks 40-52). • Long-term Treatment Period (Weeks 53 to End of Treatment [EOT]): continued study medication to assess long-term safety. • Follow-up (EOT+4 weeks): post-treatment visit (either in person or via telephone) for safety.
Inclusion Criteria: • ≥18 years of age. • Receiving chronic maintenance dialysis (either peritoneal or hemodialysis) for end-stage kidney disease for at least 12 weeks prior to Screening. • Currently maintained on ESA therapy, with a dose received within 6 weeks prior to or during Screening. • Mean screening Hb between 8.0 and 11.0 g/dL (inclusive) in the US and between 9.0 and 12.0 g/dL (inclusive) outside of the US, as determined by the average of 2 Hb values measured by the central laboratory during Screening. • Serum ferritin ≥100 ng/mL and transferrin saturation (TSAT) 20% during Screening. • Folate and vitamin B12 measurements lower limit of normal during Screening. • Understands the procedures and requirements of the study and provides written informed consent and authorization for protected health information disclosure.
as §2, with “Criteria:” for “Criteria: Subjects were excluded if they met any of the following criteria:”, “History of” for “Subjects with”, “(ULN)” for “(ULN) at or”

[3] = system: subjects receiving hemodialysis, previously maintained on epoetin alfa; conditions: human, in vivo
Protocol: The primary endpoint was mean hemoglobin (Hb) change from pre-baseline average to midtrial (Weeks 7-8) and end-of trial (Weeks 15-16) and was analyzed using available data (no imputation).

## O=C(O)CNC(=O)c1ncc(-c2cccc(Cl)c2)cc1O [Compound 1, Vadadustat]
[1]; Baseline
  Ferritin, mean: 469.72 ng/mL
  Hepcidin, mean: 122.43 ng/mL
  TSAT, mean: 31.32%
[1]; Weeks 24-36
  Ferritin, mean: 495.73 ng/mL
  Hepcidin, mean: 96.05 ng/mL
  TSAT, mean: 31.65%
[1]; Weeks 40-52
  Ferritin, mean: 555.47 ng/mL
  Hepcidin, mean: 95.73 ng/mL
  TSAT, mean: 33.11%
[1]; weeks 24-36
  proportion of patients requiring RBC transfusions: 1.3%
  proportion of patients with an average hemoglobin value within the geography-specific target range: 43.6%
[1]; weeks 24 to 36
  mean (SEM) change from baseline in hemoglobin: 1.26 (0.11) g/dL
  mean difference between groups (vadadustat vs darbepoetin alfa) in change from baseline in hemoglobin: −0.31 (0.11) g/dL
[1]; weeks 40-52
  proportion of patients requiring RBC transfusions: 2.4%
  proportion of patients with an average hemoglobin value within the geography-specific target range: 39.8%
[1]; weeks 40 to 52
  mean (SEM) change from baseline in hemoglobin: 1.42 (0.132) g/dL
  mean difference between groups (vadadustat vs darbepoetin alfa) in change from baseline in hemoglobin: −0.07 (0.13) g/dL
[2]; Baseline
  Ferritin, mean: 846.78 ng/mL
  Hepcidin, mean: 193.86 ng/mL
  TSAT, mean: 38.06%
[2]; Weeks 24-36
  Ferritin, mean: 801.93 ng/mL
  Hepcidin, mean: 146.95 ng/mL
  TSAT, mean: 34.77%
[2]; Weeks 40-52
  Ferritin, mean: 787.27 ng/mL
  Hepcidin, mean: 137.41 ng/mL
  TSAT, mean: 34.11%
[2]; weeks 24-36
  proportion of patients requiring RBC transfusions: 2.0%
  proportion of patients with an average hemoglobin value within the geography-specific target range: 49.2%
[2]; weeks 24 to 36
  mean (SEM) change from baseline in hemoglobin: 0.19 (0.032) g/dL
  mean difference between groups (vadadustat vs darbepoetin alfa) in change from baseline in hemoglobin: −0.17 (0.033) g/dL
[2]; weeks 40-52
  proportion of patients requiring RBC transfusions: 3.7%
  proportion of patients with an average hemoglobin value within the geography-specific target range: 44.3%
[2]; weeks 40 to 52
  mean change from baseline in hemoglobin: 0.23 (0.035) g/dL
  mean difference between groups (vadadustat vs darbepoetin alfa) in change from baseline in hemoglobin: −0.18 (0.035) g/dL
[3]
  deaths during the study: No deaths
